Patent US20220046925A1, “METHOD OF CONTROLLING PESTS BY SEED TREATMENT APPLICATION OF A MESOIONIC COMPOUND OR MIXTURE THEREOF” (BASF SE, priority 2018, published 2022)
Where two headings read alike, the source gives them in different places. Marks after values point to notes of the source that are not given here.

How the values were obtained:
Format in all cases: in vivo
[1] = system: Rhopalosiphum padi (RHOPPA); assay: Barley seed treatment with mixtures against Rhopalosiphum padi (Colby synergy); conditions: cotyledon stage, 4 days after infestation
Source text: (§1) When the observed combined control effect is greater than the expected combined control effect (E), then the combined effect is synergistic.
(§2) Sub-lethal rates were predetermined by rate rundown. Formulations were combined and diluted in water and applied to barley seeds which were allowed to dry. Seeds were then planted and grown in a greenhouse. At the cotyledon stage, bird cherry-oat aphids (Rhopalosiphum padi) of mixed stages were infested onto each plant and held under laboratory conditions. Replication was 6×. Four days after infestation, the number of live aphids on each plant was recorded, and means were calculated for each treatment. Percent control was calculated as the percent reduction in live aphids relative to the solvent blank (Sun-Shepard method).

Phyllotreta striolata = assay: Canola seed treatment against striped flea beetle; conditions: rate 400 (unit not given), 300 g ai/L formulation, cotyledon stage
Procedure: Canola seed treatment: Formulation was diluted in water to make appropriate concentration according to needs. Canola seeds with pre-coating inert ingredients were treated with diluted solution by vortex methods. Treated seeds were dried in ventilating chemical hood. After dry, three seeds were planted per pot (2×2 inch) at a depth of 1 cm, which were filled with Patio sand and watered prior to treatment and planting. The pots were arranged in a completely randomized design, kept in the greenhouse, and automatically top-watered and fertilized daily (NPK 16-4-20-3(Ca)-1(Mg)). At the cotyledon stage [˜7 days after treatment (DAT)], plants were thinned to 1 plant per pot. One set of plants was infested at the cotyledon stage and another set at the first true-leaf stage. Both cotyledons of a single plant were excised, and true leaves were sampled using a ⅝″ (1.59-cm) diameter leaf disc. Leaf samples were placed on a piece of 47-mm filter paper moistened with 0.225 mL distilled water in a 50-mm Petri dish. Five flea beetles were then infested into the petri dish. The dishes were held in an incubator at 27° C., 60% RH, and a 16L:8D light cycle. Five days after infestation (DAI), the numbers of live, moribund, and dead flea beetles were recorded, as well as % feeding damage (via visual estimate). […] Percent mortality was calculated for each treatment, with moribund insects classified as alive.

Rhopalosiphum padi = assay: Barley seed treatment against bird cherry oat aphid; conditions: 100 g ai/100 kg seed, first true leaf stage
Procedure: Barley seed treatment: Technical material was dissolved in DMSO. Twenty barely seeds were treated with a vortex method and planted in a pot (2×2 inch) filled with Rediearth soil. One seed was planted per pot and the pots were arranged in a completely randomized design, held in the greenhouse, and top-watered and fertilized daily. Four seedlings were taken from each cotyledon & true leaf treatment samples. DMSO solvent blank were used as positive and negative treatments, respectively. The true leaf stage was infested 14 days after planting (DAP). Ten bird cherry-oat aphids of mixed stages were transferred individually to each plant with a paint brush. Six replicates were set up for each treatment. After infestation, plants were kept on a light cart at room temperature and bottom watered until evaluated. The number of live aphids at 4 days after infestation (4DAI) was recorded, and means were calculated for each treatment. Percent control was calculated as the percent reduction in live aphids relative to the solvent blank.

Myzus persicae = assay: Sugarbeet seed treatment against green peach aphid
Procedure: Sugarbeet seed treatment: Seeds were treated in according to desired rates. Seeds were planted (one per pot) at a depth of 1.5 cm in 3×3 in (58.0644 cm2) pots that were filled with RediEarth soil and moistened prior to planting. Pots were held in a completely randomized design in the greenhouse and automatically top watered and fertilized [NPK 16-4-20-3(Ca)-1(Mg)] daily (4 min, 4× a day) until infestation. A set of plants was infested 7, 14, 21 and 28 days after treatment (DAT). Thirty aphids were transferred individually to each plant with a paint brush. After infestation, plants were kept on a light cart at room temperature with continuous light and bottom watered until evaluation. Six days after infestation (DAI), the number of live aphids was recorded, and means were calculated for each treatment. Percent control was calculated as the percent reduction in live aphids relative to the solvent blank.

Elasmopalpus sp = assay: Soybean seed treatment against lesser corn stalkborer (cage)
Procedure: Soybean seed treatment: Soybean seeds were treated with Compound I-R-1. The treated seeds were sown inside an enclosed cage, in two lines at 29 seeds/cage. Thirty-five 3rd instar larvae of Elasmopalpus sp were introduced into each cage at six days after sowing. The number of dead and live plants were counted periodically.

Dichelops melacanthus = assay: Corn seed treatment against green belly stink bug (cage); conditions: for mortality at 30 g/ha: Dichelops melacanthus
Procedure: Corn seed treatment: Corn seeds were treated with Compound I-R-1. The treated seeds were sown inside an enclosed cage, at 16 seeds/cage. Twenty-four stinkbugs, were introduced into each cage. The number of dead and live stinkbugs were counted periodically.

Frankliniella fusca [2] = assay: Cotton seed treatment against tobacco thrips (field)
Procedure: Cotton seed treatment: Field studies were carried out against tobacco thrips using cotton seeds treated with 0.375 mg ai/seed of Compound I-R-1. Treated Seeds were sown in 30 sq m plots. There were 4 replications for each treatment. Feeding damage was assessed at 5 and 7 days after planting (DAP).

Frankliniella fusca [3] = assay: Peanut seed treatment against tobacco thrips (field)
Procedure: Peanut seed treatment: Field trials were laid out. Treated peanut seeds were sown in 8 sq m plots using 4 replications. Feeding damage was assessed at 28 and 35 days after treatment.

[4] = system: Leptinotarsa decimlineata; assay: Potato seed piece treatment against Colorado potato beetle
Procedure: 8. Potato—Colorado Potato Beetle (Leptinotarsa decimlineata) Potato seed piece treatment: Seed potatoes were treated by spraying. After application, potatoes were allowed to dry prior to planting. The plots were laid out in 6-meter rows with 4 replications. Feeding damage assessments were taken at 42 and 50 days after planting.

[5] = system: Frankliniella occidentalis (FRANOC); assay: Cotton seed treatment with mixtures against Frankliniella occidentalis (Colby synergy); conditions: 7DAI
Source text: as §1
as §2, with “cotton” for “barley”, “western flower thrips (Frankliniella occidentalis) adults” for “bird cherry-oat aphids (Rhopalosiphum padi) of mixed stages”, “5×. Seven and 14” for “6×. Four”, “percent damage” for “the number of live aphids on each plant”, “visually assessed,” for “recorded,”

## CCN(C(=O)c1cnn(C(C)C(C)C)c1C)c1ccnnc1 (stereo not drawn) [Dimpropyridaz, 1-(1,2-dimethylpropyl)-N-ethyl-5-methyl-N-pyridazin-4-yl-pyrazole-4-carboxamide]
[1]; 18 g ai/100 kg seeds
  % activity (population reduction), solo application: 5%
[1]; 46 g ai/100 kg seeds
  % activity (population reduction), solo application: 11%

## C[n+]1c([O-])c(-c2ccccc2)c(=O)n2c1SC[C@@H]2c1cnc(Cl)s1 (single isomer, unassigned) [Compound I-R-1]
Phyllotreta striolata; 5DAI, 13DAP
  Mean % feeding damage (5DAI, 13DAP): 19^b %
Phyllotreta striolata; relative to solvent blank
  Mean % Feeding Damage Reduction Relative to SB: 58%
Rhopalosiphum padi
  Mean % Population Reduction (18 DAP, 4DAI): ≥90%
Myzus persicae; sugar beet seed treatment, 80 g ai/1 kg seed, infested 7 DAP, 6DAI
  Mean % Population Reduction Relative to SB @ 6DAI, 7 DAP: 100%
Myzus persicae; sugar beet seed treatment, 80 g ai/1 kg seed, infested 14 DAP, 6DAI
  Mean % Population Reduction Relative to SB @ 6DAI, 14 DAP: ≥90%
Myzus persicae; sugar beet seed treatment, 80 g ai/1 kg seed, infested 21 DAP, 6DAI
  Mean % Population Reduction Relative to SB @ 6DAI, 21 DAP: ≥90%
Myzus persicae; sugar beet seed treatment, 80 g ai/1 kg seed, infested 28 DAP, 6DAI
  Mean % Population Reduction Relative to SB @ 6DAI, 28 DAP: ≥90%
Myzus persicae; sugarbeet seed treatment
  activity against green peach aphid by sugarbeet seed treatment (in words): excellent activity
Myzus persicae; sugarbeet seed treatment, 4 weeks after plant
  activity as far as 4 weeks after plant (in words): excellent activity
Elasmopalpus sp
  efficacy against Elasmopalpus sp. in terms of plant protection (in words): good efficacy
Elasmopalpus sp; 50 g ai/ha, assessment A03
  Number of dead plants/plot, A03: 1.50 a
Elasmopalpus sp; 50 g ai/ha, assessment A07
  Number of dead plants/plot, A07: 4.50 ab
Elasmopalpus sp; 50 g ai/ha, assessment A14
  Number of dead plants/plot, A14: 5.25 b
Elasmopalpus sp; 50 g ai/ha, assessment A21
  Number of dead plants/plot, A21: 6.75 b
Dichelops melacanthus; read-out: Percentage mortality (%), A01
  mortality at 30 g/ha: 5.4%
Dichelops melacanthus; read-out: Percentage mortality (%), A03
  mortality at 30 g/ha: 24.6%
Dichelops melacanthus; read-out: Percentage mortality (%), A07
  mortality at 30 g/ha: 13%
Dichelops melacanthus; read-out: Percentage mortality (%), A14
  mortality at 30 g/ha: 35.3%
Dichelops melacanthus; read-out: Percentage mortality (%), A21
  mortality at 30 g/ha: 61.5%
Dichelops melacanthus; corn seed treatment
  efficacy against green belly stink bug (in words): good efficacy
Frankliniella fusca [2]
  efficacy against F. fusca in terms of reduction in feeding damage (in words): excellent efficacy
Frankliniella fusca [2]; 0.375 mg ai/seed, field, 5 DAP
  Feeding damage (%), 5 DAP: 6.0 b %
Frankliniella fusca [2]; 0.375 mg ai/seed, field, 7 DAP
  Feeding damage (%), 7 DAP: 12.5 c %
Frankliniella fusca [3]
  efficacy against F. fusca in terms of reduction in feeding damage (in words): good efficacy
Frankliniella fusca [3]; 0.68 mg ai/seed, field, 28 days after treatment
  Feeding damage (%), A28: 13.0 b %
Frankliniella fusca [3]; 0.68 mg ai/seed, field, 35 days after treatment
  Feeding damage (%), A35: 13.5 b %
[4]
  efficacy against L. decimlineata regarding reduction in feeding damage (in words): good efficacy
[4]; 400 g ai/ha, 42 days after planting
  Feeding damage, A42: 3.0 b
[4]; 400 g ai/ha, 50 days after planting
  Feeding damage, A50: 11.3 bc
[1]; 5 g ai/100 kg seeds
  % activity (population reduction), solo application: 46%
[1]; 14 g ai/100 kg seeds
  % activity (population reduction), solo application: 59%
[5]; use rate 0.375 (head: g ai/100 kg seeds)
  % activity (feeding damage reduction), solo application: 19%

## O=C1C=C(N(Cc2ccc(Cl)nc2)CC(F)F)CO1 [Flupyradifurone]
[1]; 21 g ai/100 kg seeds
  % activity (population reduction), solo application: 36%

## CN1COCN(Cc2cnc(Cl)s2)/C1=N\[N+](=O)[O-] [thiamethoxam, reference compound]
[5]; use rate 0.300 (head: g ai/100 kg seeds)
  % activity (feeding damage reduction), solo application: 37%
